Drawing on ChEMBL document CHEMBL2177102, “Modulation of DNA repair by pharmacological inhibitors of the PIKK protein kinase family” (Bioorg Med Chem Lett, 2012), this text covers IC50, Ki and EC50 for 16 molecules.

The IC50 is the concentration at which inhibition is half-maximal. As usually defined, the Ki is a measure of affinity in units of concentration, obtained from inhibition or displacement. The low end stands for a stronger hold on the target, the high end for a looser hold on the target. What is called EC50 is the concentration giving half of the maximal effect.

Structures are written as SMILES. Several values for one entry are separate records, joined by “and”; a condition that tells them apart may be missing. Identical values can stand only once.

The target of test [1] is DNA-dependent protein kinase catalytic subunit (Mus musculus, UniProt P97313). The experiment in a line: Inhibition of DNA-PK in C57BL6 mouse endothelial cells. It counts as cell-based, Endothelial cell.
Test [2] concerns the target T1, DNA-dependent protein kinase catalytic subunit (Homo sapiens, UniProt P78527). The experiment in a line: Inhibition of DNA-PK assessed as inhibition of p53 peptide phosphorylation.
The target in test [3] is T1, DNA-dependent protein kinase catalytic subunit. Briefly: Competitive inhibition of DNA-PK.
Test [4] shares this target. Briefly: Inhibition of DNA-PK.
The target in test [5] is Serine-protein kinase ATM (Homo sapiens, UniProt Q13315). The experiment in a line: Irreversible inhibition of ATM.
Test [6] concerns the target Heat shock protein HSP 90-beta (Homo sapiens, UniProt P08238). The experiment in a line: Inhibition of Hsp90.
Test [7] in a line: Inhibition of PI3K.
Test [8] addresses Serine/threonine-protein kinase ATR (Homo sapiens, UniProt Q13535). The experiment in a line: Inhibition of flag-tagged ATR expressed in HEK293T cells using PHAS-1 as substrate after 20 mins by autoradiography. On the set-up: species or system HEK-293T.
Test [9] has as its target T1, DNA-dependent protein kinase catalytic subunit. Briefly: Inhibition of DNA-PK in human U1810 cells after 30 mins. It is filed as cell-based.

T1 sequence (P78527 whole entry): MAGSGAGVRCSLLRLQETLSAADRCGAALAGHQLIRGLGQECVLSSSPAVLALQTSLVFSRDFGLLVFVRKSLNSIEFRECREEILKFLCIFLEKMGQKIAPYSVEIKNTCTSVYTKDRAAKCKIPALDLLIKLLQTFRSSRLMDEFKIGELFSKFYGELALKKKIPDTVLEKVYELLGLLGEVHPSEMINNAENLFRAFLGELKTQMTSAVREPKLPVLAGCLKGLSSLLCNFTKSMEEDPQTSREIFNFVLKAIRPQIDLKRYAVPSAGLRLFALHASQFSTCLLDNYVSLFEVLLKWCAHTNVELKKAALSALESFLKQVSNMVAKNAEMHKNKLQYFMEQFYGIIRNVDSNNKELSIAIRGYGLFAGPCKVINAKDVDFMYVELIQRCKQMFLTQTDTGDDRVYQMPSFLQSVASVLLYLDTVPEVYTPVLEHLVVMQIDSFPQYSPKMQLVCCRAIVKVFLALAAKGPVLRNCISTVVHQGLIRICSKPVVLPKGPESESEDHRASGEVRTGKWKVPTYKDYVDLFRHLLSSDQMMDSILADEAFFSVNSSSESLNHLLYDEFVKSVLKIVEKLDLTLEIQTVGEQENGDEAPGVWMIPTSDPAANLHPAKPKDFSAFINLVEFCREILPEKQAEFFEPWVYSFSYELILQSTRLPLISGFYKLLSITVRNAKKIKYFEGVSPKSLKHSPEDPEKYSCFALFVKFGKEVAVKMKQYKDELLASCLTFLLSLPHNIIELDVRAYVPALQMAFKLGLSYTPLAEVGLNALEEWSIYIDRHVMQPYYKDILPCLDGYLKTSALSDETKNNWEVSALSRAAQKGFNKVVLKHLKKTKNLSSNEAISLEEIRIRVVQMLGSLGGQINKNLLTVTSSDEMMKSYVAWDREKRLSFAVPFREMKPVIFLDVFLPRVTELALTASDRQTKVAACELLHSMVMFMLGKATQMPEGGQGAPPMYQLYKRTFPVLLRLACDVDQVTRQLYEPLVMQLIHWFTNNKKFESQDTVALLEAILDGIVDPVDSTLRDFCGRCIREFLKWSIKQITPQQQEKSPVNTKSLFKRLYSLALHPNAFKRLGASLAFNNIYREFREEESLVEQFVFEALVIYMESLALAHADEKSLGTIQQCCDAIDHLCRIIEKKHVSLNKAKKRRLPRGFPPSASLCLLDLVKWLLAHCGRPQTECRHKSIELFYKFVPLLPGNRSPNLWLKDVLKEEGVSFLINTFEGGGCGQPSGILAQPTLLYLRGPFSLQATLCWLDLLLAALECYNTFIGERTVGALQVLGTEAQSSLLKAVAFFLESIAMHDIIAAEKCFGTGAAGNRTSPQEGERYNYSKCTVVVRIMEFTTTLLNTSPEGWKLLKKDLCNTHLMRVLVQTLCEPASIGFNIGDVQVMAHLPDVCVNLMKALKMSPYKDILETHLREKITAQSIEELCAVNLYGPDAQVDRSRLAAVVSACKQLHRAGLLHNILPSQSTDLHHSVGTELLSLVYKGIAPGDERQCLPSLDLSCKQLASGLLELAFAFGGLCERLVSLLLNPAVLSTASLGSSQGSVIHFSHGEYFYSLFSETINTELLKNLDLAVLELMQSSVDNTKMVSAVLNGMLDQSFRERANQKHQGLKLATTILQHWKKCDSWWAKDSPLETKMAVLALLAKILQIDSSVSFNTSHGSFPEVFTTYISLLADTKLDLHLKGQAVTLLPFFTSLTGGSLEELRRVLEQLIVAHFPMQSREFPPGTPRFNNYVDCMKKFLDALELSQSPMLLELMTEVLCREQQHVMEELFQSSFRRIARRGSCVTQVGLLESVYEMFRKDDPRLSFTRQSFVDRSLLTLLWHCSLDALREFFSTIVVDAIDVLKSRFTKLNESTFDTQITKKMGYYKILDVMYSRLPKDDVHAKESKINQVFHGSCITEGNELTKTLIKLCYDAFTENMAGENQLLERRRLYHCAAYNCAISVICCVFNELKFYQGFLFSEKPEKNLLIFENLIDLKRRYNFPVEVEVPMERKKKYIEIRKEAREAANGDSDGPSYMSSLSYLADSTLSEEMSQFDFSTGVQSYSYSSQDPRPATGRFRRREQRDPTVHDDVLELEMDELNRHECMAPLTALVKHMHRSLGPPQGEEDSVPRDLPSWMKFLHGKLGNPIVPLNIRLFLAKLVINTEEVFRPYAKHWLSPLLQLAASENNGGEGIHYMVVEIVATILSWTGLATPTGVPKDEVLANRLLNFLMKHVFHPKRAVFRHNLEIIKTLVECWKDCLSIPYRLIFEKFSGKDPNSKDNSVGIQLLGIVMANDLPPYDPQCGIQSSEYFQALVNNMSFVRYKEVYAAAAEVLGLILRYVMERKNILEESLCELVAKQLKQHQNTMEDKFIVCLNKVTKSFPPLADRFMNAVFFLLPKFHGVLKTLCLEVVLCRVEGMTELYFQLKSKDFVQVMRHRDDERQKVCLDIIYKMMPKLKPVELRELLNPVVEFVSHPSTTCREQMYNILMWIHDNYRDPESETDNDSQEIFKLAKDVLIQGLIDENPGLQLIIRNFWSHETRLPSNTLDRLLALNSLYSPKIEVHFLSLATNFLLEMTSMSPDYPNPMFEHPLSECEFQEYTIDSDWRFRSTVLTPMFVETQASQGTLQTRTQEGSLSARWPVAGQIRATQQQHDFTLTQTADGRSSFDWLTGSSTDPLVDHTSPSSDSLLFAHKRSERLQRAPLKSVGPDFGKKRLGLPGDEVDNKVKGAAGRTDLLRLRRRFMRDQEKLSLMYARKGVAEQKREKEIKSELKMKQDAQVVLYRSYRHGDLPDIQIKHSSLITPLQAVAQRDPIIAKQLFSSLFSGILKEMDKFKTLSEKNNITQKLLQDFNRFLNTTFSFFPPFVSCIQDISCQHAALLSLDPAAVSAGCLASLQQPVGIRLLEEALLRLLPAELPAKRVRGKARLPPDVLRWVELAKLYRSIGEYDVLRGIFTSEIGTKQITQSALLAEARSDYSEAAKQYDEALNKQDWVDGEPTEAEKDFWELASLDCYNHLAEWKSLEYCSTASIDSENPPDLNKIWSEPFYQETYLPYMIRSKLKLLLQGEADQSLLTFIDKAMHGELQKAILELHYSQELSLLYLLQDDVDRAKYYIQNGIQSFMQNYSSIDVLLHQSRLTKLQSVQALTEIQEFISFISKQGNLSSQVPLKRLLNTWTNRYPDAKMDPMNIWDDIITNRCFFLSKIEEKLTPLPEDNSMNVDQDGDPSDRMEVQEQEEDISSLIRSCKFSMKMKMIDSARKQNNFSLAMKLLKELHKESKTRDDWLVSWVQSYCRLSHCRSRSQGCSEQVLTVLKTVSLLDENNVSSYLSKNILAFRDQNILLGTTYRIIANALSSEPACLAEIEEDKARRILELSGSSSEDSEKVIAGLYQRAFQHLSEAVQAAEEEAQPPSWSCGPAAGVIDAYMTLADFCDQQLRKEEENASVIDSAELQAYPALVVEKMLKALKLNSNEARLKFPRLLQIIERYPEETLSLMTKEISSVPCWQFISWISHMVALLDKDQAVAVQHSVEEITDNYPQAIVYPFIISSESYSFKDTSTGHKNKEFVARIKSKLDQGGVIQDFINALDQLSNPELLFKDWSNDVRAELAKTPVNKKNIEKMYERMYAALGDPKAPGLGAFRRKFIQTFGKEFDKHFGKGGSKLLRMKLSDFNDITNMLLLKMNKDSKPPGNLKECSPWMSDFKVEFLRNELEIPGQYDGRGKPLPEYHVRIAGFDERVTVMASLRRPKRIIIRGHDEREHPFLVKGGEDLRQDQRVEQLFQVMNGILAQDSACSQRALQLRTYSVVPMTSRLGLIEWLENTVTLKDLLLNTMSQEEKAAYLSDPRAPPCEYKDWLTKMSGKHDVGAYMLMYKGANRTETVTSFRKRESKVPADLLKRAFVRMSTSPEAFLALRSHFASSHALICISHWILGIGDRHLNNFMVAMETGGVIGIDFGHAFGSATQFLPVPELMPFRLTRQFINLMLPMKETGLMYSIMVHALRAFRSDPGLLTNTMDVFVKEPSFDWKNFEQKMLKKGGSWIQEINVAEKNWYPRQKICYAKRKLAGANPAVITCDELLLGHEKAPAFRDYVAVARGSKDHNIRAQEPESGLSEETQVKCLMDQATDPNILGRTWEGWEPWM
Sequence of Heat shock protein HSP 90-beta (P08238 whole entry): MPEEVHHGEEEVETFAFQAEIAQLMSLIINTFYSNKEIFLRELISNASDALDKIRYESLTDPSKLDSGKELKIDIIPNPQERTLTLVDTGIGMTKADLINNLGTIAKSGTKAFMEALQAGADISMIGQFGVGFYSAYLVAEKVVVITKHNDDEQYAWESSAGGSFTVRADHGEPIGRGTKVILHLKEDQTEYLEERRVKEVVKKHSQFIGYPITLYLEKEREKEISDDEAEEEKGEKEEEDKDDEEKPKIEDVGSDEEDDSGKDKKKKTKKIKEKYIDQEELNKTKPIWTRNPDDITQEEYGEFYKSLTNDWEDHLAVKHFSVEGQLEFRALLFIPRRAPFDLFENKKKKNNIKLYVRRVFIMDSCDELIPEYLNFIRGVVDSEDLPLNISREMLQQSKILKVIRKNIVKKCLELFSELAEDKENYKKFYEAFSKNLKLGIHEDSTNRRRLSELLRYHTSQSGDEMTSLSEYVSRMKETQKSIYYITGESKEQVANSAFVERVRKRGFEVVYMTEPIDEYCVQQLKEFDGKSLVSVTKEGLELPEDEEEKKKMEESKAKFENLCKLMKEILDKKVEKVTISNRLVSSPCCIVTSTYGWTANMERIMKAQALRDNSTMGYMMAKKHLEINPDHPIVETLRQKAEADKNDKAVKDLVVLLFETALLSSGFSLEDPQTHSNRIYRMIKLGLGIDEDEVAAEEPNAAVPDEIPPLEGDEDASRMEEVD

With `CC(=O)c1ccc(N2CCOCC2)cc1O`, inhibition in test [1] was half-maximal at 120 nM (IC50).

As to `COc1cc(C=O)c([N+](=O)[O-])cc1OC`, the IC50 in [2] was 15 µM. Consider `Nc1ncc(-c2ccccc2)nc1C(=O)Nc1ccccc1`, for which the IC50 in test [3] came out at 620 nM. `CS(=O)(=O)c1ccc(-c2cnc(N)c(C(=O)Nc3ccccc3)n2)cc1`: the IC50 in [4] amounted to 26 nM.

As for `CC(CN(C)C)S(=O)(=O)c1ccc(-c2cnc(N)c(C(=O)Nc3ccccc3)n2)cc1` (stereo not drawn), affinity in test [4] was put at a Ki of 6 nM.

On to `CCc1[nH]c(/C=C2\C(=O)Nc3ccc(S(=O)(=O)Nc4ccccc4)cc32)c(CC)c1CCC(=O)O`, for which, in test [3], the IC50 stood at 130 nM.

Take `COc1cc(Br)c(C=O)cc1OC`: in [2], the IC50 turned out to be 30 µM. Consider `O=c1cc(-c2ccccc2)oc2c(-c3ccccc3)c(N3CCOCC3)cc(O)c12`, for which the IC50 in [1] worked out at 34 nM. Turning to `Cc1ccc2c(sc3ccccc32)c1-c1cccc2c(=O)cc(N3CCOCC3)oc12`, in [4], the IC50 is 1200 nM and 2500 nM.

`C=C1C(=O)OC[C@@H]1C(=O)N1Cc2cc3ccccc3nc2C1`: the midpoint of inhibition in test [5], the IC50, lay at 600 nM. On the same count and under the same terms, to `C=C1C(=O)OCC1(C(=O)OCC)C(=O)OCC` belongs 250 nM. In [3], `N#Cc1cc(-c2ccncc2)c(/C=N/N)nc1O` registered an IC50 of 8000 nM. In turn, `CO[C@@H]1/C=C/C=C(\C)C(=O)NC2=CC(=O)C(NCCCCCCOc3ccc4c(=O)cc(N5CCOCC5)oc4c3)=C(C[C@@H](C)C[C@@H](OC)[C@@H](O)[C@H](C)/C=C(\C)[C@H]1OC(N)=O)C2=O` (stereo in doubt) showed an EC50 in [6] of 4 µM. Besides, the IC50 is over 500 µM in [7] and 6100 nM in test [4].

As to `COc1cc2c(c(OC)c1OC)-c1c(cc3c(c1OC)OCO3)CC(C)C(C)C2` (stereo not drawn) [SCHISANDRIN B], the IC50 in test [8] amounted to 7.3 µM. Regarding `CN1CCN(CCCN2c3ccccc3Sc3ccc(C(F)(F)F)cc32)CC1` [TRIFLUOPERAZINE], the IC50 in [9] worked out at 100 µM. As to `COc1cc(C=O)ccc1O` [VANILLIN], the IC50 in test [2] came to 1500 µM.
